Experimental data: PMC6934184, “Selective DNA-PKcs inhibition extends the therapeutic index of localized radiotherapy and chemotherapy” (The Journal of Clinical Investigation, 2019)

Biological target: T1, ABL1 E255K (Homo sapiens, UniProt P00519, E255K)
T1 construct: purchased Thermo Fisher Scientific (Life Technologies) SelectScreen
Assay: SelectScreen Z'LYTE
Format: biochemical
How it was run: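 Percent values come from Thermo SelectScreen profiling of NU5455, combining activity and binding assays. CSF1R was run in Z'LYTE format at Km app ATP, and CAMK1 in Adapta format with ATP listed at 10.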

T1 sequence (P00519 whole entry E255K): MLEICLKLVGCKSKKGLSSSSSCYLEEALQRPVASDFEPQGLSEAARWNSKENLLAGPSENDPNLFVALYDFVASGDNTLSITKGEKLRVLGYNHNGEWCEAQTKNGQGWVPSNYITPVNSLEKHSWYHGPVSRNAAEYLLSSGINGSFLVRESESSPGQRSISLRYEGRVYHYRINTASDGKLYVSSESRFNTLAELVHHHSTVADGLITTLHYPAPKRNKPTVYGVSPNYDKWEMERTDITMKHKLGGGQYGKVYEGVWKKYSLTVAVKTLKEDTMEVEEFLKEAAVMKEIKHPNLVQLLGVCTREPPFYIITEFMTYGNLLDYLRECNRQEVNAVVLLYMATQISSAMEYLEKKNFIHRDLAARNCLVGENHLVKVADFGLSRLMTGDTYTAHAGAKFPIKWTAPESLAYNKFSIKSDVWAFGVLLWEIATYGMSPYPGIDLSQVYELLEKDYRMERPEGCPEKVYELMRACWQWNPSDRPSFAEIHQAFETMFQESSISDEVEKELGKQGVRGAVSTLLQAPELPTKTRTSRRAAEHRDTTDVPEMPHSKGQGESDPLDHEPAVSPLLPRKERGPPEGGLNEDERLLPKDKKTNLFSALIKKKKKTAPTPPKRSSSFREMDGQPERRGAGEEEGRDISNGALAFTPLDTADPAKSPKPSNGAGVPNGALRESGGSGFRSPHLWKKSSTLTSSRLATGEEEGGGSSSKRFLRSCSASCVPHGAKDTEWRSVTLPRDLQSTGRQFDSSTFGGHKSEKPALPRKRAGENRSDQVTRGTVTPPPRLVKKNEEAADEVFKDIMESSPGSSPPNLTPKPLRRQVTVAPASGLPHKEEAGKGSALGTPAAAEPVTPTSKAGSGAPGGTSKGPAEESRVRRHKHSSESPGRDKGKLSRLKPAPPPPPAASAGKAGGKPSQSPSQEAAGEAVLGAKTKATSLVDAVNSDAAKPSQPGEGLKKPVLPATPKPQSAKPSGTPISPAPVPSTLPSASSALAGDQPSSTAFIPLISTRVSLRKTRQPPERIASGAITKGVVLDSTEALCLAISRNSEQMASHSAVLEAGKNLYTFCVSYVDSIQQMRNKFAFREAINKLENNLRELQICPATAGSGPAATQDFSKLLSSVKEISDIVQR

CN(C(=O)CN1CCOCC1)c1ccc2sc3c(-c4cccc5c(=O)cc(N6CC7CCC(C6)O7)oc45)cccc3c2c1 [NU5455]
inhibition at 1 µM: -6.6%
